# Measured values reported in patent publication US7034208B1, “Ahas inhibiting herbicide resistant wheat and method for selection thereof” (BASF Aktiengellschaft, priority 1991, dated 2006).
# Where two headings read alike, the source gives them in different places.
# Experiments:
# [1] = test system: wheat selection FS4 and Fidel; experiment: Field Trial II; format: in vivo; conditions: for effect on final plant height: resistant selection FS4, postemergent, six weeks after treatment
# wheat seeds = experiment: Seed soak screen (Example 1, Step 1, Experiments 1-4); format: in vivo; conditions: for herbicide concentration necessary for lethality: seed soak; for seedling appearance versus controls: by three to four weeks
# Experimental: The seeds are rinsed in sterile distilled water and then soaked in a herbicide concentration for a set period of time, as described below. Sets of twenty-five seeds are placed into 25 ml of the herbicide solution described below in a sterile 100×15 mm plastic petri dish and soaked for the designated time. The seeds are rinsed with water, dried with paper towels and planted (25 seeds/flat) approximately ½″ deep in 6×8 inch peat flats containing a moist, sterile, artificial soil, Metro Mix 350™ (Grace Company, Cambridge, Mass.). The treatments are evaluated at four weeks after treatment. The herbicides, rates and time periods evaluated are described below:
# Each treatment is replicated four times.
# Each treatment is replicated two times.
# The protocol is as described above except that 35 seeds are soaked per petri dish; 25 seeds are still planted per flat. This experiment is repeated twice.
# [2] = test system: wheat seed of the susceptible cultivar Fidel; experiment: Pre-emergence herbicide application, rate finding; format: in vivo; conditions: visual toxicity after three to four weeks
# Experimental: A series of experiments is performed to determine the appropriate herbicide rate for this pre-emergent spray treatment. Wheat seed of the susceptible cultivar Fidel is planted in Metro Mix 350™ in 6×8 inch peat flats at a rate of 100 seeds per flat. The flats are watered prior to herbicide treatment. Three flats are sprayed per treatment. The herbicides are applied with a laboratory belt sprayer at a rate of 950 liters per hectare (L/ha) at a belt speed of 12.8 sec/rev using sprayer nozzle #40015E (Teejet™ Spraying Systems). After three to four weeks, the treatments are evaluated by visual observation for toxicity to the wheat seeds/seedlings.
# [3] = test system: mutant wheat selections FS1-FS4 and Fidel; format: in vivo
# From the text: This greenhouse test examines the level and spectrum of herbicide resistance of the mutant selections at the whole plant level. […] These lines are bulked according to their parental lines: FS1, FS2, FS3 and FS4. Fidel (wild-type) is used is a control and for performance comparison purposes. Five seeds from each of these lines (including Fidel) are planted per pot in six inch Azalea pots and are later thinned to three plants per pot. Three replicates are used per treatment (chemical and rate) for each line, and six replicates per wheat line are used as untreated controls. Plants are sprayed postemergence, 10 days after planting, with the following herbicides and rates: […]
# [4] = test system: wheat variety Fidel and resistant selections FS2 and FS4; experiment: Preemergence Herbicide Tolerance; format: in vivo; conditions: pre-emergence application; plant growth after four weeks; versus Fidel
# [5] = test system: wheat selections FS2 and FS4 and Fidel; experiment: Postemergence Herbicide Tolerance, upper limits; format: in vivo; conditions: four weeks after treatment
# From the text: In this second greenhouse test, the upper limits of the mutant selections' resistance to postemergent applications of PURSUIT™ and Compound 2 are examined. M4 seed of two of the mutant selections, FS2 and FS4, and seed of Fidel are used in this experiment. Five seeds from each line are planted per pot in sterile Metro Mix 350™ in six inch Azalea pots. Immediately prior to herbicide treatment, these plants are thinned to three plants per pot. Three replicates are used per treatment (chemical & rate) for each line, and six replicates per wheat line are used as untreated controls. The plants are sprayed postemergence, 10 days after planting, with the following herbicides and rates (g/ha):
# The herbicides are applied as previously described. Plant height is measured immediately prior to spraying. Plant heights are also measured at two and four weeks after treatment, and shoot fresh weights measured at seven weeks after treatment.
# [6] = test system: mutant wheat selection FS2 and Fidel; experiment: M3-M4 Wheat Herbicide Resistance Spectrum; format: in vivo; conditions: FS2 versus Fidel; postemergence
# From the text: In this experiment, the tolerance of imidazolinone-resistant wheat to three sulfonylurea herbicides (BEACON™, CLASSIC™ and OUST™ (BEACON™ is a registered trademark of Ciba-Geigy and is 2-[4,6-bis-(difluoro-methoxy)-pyrimidin-2-ylcarbamoylsulfamoyl]benzoic acid; CLASSIC™ is a registered trademark of E.I. du Pont de Nemours and Company and is the ethyl ester of o-[[(4-chloro-6-methoxy-2-pyrimidinyl)-carbamoyl]-sulfamoyl]-benzoic acid), a sulfamoylurea herbicide (Compound 3), a sulfonylcarboxamide (Compound 1), and an imidazolinone herbicide (Compound 7, which is 3-(4-isopropyl-4-methyl-5-oxo-2-imidazolin-2-yl)-2-methyl-crotonic acid), is examined to look for cross-tolerance to AHAS-inhibiting herbicides other than the imidazolinones. […] Each treatment consists of three replicates. In addition, there are six replicates each of FS2 and Fidel which are used as untreated controls. Plants are sprayed postemergence, 7 days after planting, with the following herbicides and rates:
# The herbicides are applied as previously described. Plants are rated at two, three and four weeks after treatment with herbicide.
# [7] = test system: mutant wheat selection FS2 and Fidel; conditions: FS2 versus Fidel; postemergence
# From the text: In a second experiment, the mutant wheat selection, FS2, from bulked M3-M4 seed, and Fidel seed are planted in 6″ Azalea pots in sterile Metro Mix 350™. Three seeds are planted per pot initially; these are subsequently thinned to two plants. There are three replicates of each treatment. In addition, the untreated controls consist of 15 replicates each of Fidel and FS2. Plants are sprayed postemergence, 12 days after planting, with the following herbicides and rates: […]
# [8] = test system: AHAS (acetohydroxyacid synthase); experiment: AHAS Enzyme Assay I and II (M4 Plants); format: biochemical, wheat; conditions: mutant selections; level lower than that for PURSUIT
# Experimental: Enzyme Extraction: For the extraction of AHAS, 10 grams of tissue are powdered in liquid nitrogen and then homogenized in 100 mM potassium phosphate buffer (pH 7.5) containing 10 mM pyruvate, 5 mM MgCl2, 5 uM EDTA, 100 uM FAD, 1 mM valine, 1 mM leucine, 10% glycerol, and 10 mM cysteine. The homogenate is filtered through a nylon cloth (53 uM mesh) and centrifuged at 25,000 g for 20 minutes. The supernatant fraction is brought to 50% saturation with respect to (NH4)2SO4 and allowed to stand for 20-30 minutes on ice. It is then centrifuged at 25,000 g for 20 minutes and the supernatant is discarded. The ammonium sulfate pellet is dissolved in 50 mM potassium phosphate buffer (pH 7.5) containing 1 mM EDTA and 100 mM NaCl and used for the assay procedures.
# AHAS Assay: AHAS activity is measured by estimation of the product, acetolactate, after conversion by decarboxylation in the presence of acid to acetoin. Standard reaction mixtures contain the enzyme in 50 mM potassium phosphate buffer (pH 7.0) containing 100 mM sodium pyruvate, 10 mM MgCl2, 1 mM thiamine pyrophosphate, and 10 uM FAD. This mixture is incubated at 37° C. for one hour after which time the reaction is stopped with the addition of […] to make a final concentration of 0.85% […] in the tube. The reaction product is allowed to decarboxylate at 60° C. for 15 minutes. The acetoin formed is determined by incubating with creatine (0.17%) and 1-napthol (1.7% in 4N NaOH) by the method of Westerfield (Westerfield, W. W., J. Biol. Chem., 161, 495-502 (1945)). Maximum color is observed by incubation at 60° C. for 15 minutes and then further incubation at room temperature for 15 minutes. The absorption of color complex is measured at 520 nm. Appropriate checks of direct acetoin formation during the enzyme assay are made. Each assay is run at least in duplicate and the experiments are repeated a minimum of two times.
# Herbicide Application: Two flats are planted with approximately 100 seeds of each wheat selection (FS1, FS2, and FS4) and Fidel in sterile Metro Mix 350. Ten days later, each flat is sprayed postemergence with 62.5 g/ha of PURSUIT™. The spray delivery rate is 400 L/ha with a belt speed of 8.2 sec/rev using nozzle #65015E. Tween 20™ is used as a surfactant at 0.25% v/v. The plants are harvested three days later and assayed for AHAS activity.
# Enzyme Extraction and AHAS Assay: As previously described.
# Herbicide Application: As described above (Enzyme Assay I) except that the spray delivery rate is 950 l/ha with a belt speed of 12.8 sec/rev using nozzle #40015E.
# [9] = mutant wheat FS1-FS4, postemergence, plant growth four weeks after treatment
structure (smiles),measurement,setting,value
"COc1cc(OC)nc(NC(=O)NS(=O)(=O)c2ncccc2C(=O)N(C)C)n1 [ACCENT, 1-(4,6-dimethoxypyrimidin-2-yl)-3-(3-dimethylcarbamoyl-2-pyridylsulfonyl)urea]",cross resistance,"[1]; FS4, after three weeks",no cross resistance
same,tolerance of the resistant wheat,"[1]; FS4, postemergent 20 and 40 g/ha",little or no tolerance
same,grain yield,"[1]; both the resistant and susceptible Fidel, yields 10 weeks after treatment",little or no grain yield
"CC(C)C1(C)N=C(c2ncccc2C(=O)O)NC1=O (centres unmarked) [ARSENAL, 2-(4-isopropyl-4-methyl-5-oxo-2-imidazolin-2-yl)-nicotinic acid]",effect on seed germination and seedling growth,"wheat seeds; seed soak 1-500 uM for 48 hours, Experiment 1",inhibits seed germination and seedling growth with increasing concentration
same,seedling growth,wheat seeds; seed soak 100 and 500 uM for 48 hours,totally inhibit seedling growth
same,herbicide concentration necessary for lethality,wheat seeds; exposure greater than 72 hours,50 µM
same,herbicide concentration necessary for lethality,wheat seeds; length of exposure less than 72 hours,75 µM
same,"most effective rate, pre-emergent spray",[2],40-50 g/ha
same,rate to which the mutant wheat is resistant,[3]; [9],more than 48 g/ha
same,increased tolerance of FS2 and FS4,[4],approximately 8 fold
"Cc1cnc(C2=NC(C)(C(C)C)C(=O)N2)c(C(=O)O)c1 (centres unmarked) [CADRE, 2-(4-isopropyl-4-methyl-5-oxo-2-imidazolin-2-yl)-5-methylnicotinic acid]",effect on final plant height,[1],no effect
"CC(=O)NC(C)(C(=O)NS(=O)(=O)c1ccc(Cl)cc1)C(C)C (centres unmarked) [Compound 1, 2-acetamido-N-[(p-chlorophenyl)sulfonyl]-2,3-dimethyl-butyramide]",inhibitory effect on seed germination or seedling growth,"wheat seeds; seed soak 500-2000 uM for 48, 72 or 96 hours",does not have an inhibitory effect on either seed germination or seedling growth
"COCc1cnc(C2=NC(C)(C(C)C)C(=O)N2)c(C(=O)O)c1 (centres unmarked) [Compound 2, 2-(4-isopropyl-4-methyl-5-oxo-2-imidazolin-2-yl)-5-(methoxymethyl)-nicotinic acid]",rate to which the mutant wheat is resistant,[3]; [9],more than 80 g/ha
same,increased tolerance of mutant wheat,"[3]; mutant wheat FS1-FS4 versus Fidel, postemergence, four weeks after treatment",~16 fold
same,rates up to which FS2 and FS4 plant heights equal the untreated controls,[5],25-50 g/ha
same,effect on final plant height,[1],no effect
"C/C(C(=O)O)=C(\C)C1=NC(C)(C(C)C)C(=O)N1 (centres unmarked) [Compound 7, 3-(4-isopropyl-4-methyl-5-oxo-2-imidazolin-2-yl)-2-methyl-crotonic acid]",resistance,[6],greater than 10 fold
"COC(OC)c1cnc(C2=NC(C)(C(C)C)C(=O)N2)c(C(=O)O)c1 (centres unmarked) [Compound 8, 5-formyl-2-(4-isopropyl-4-methyl-5-oxo-2-imidazolin-2-yl)-nicotinic acid, 5-(dimethylacetal)]",effect on final plant height,[1],no effect
"COC(=O)c1ccccc1S(=O)(=O)NC(=O)Nc1nc(C)cc(C)n1 [OUST, methyl ester of o-[[3-(4,6-dimethylpyrimidin-2-yl)ureido]sulfonyl]-benzoic acid]",increased tolerance of mutant wheat,[3]; in vivo,~2 fold
same,rate to which the mutant wheat is resistant,[3]; in vivo,more than 5 g/ha
same,increased tolerance of the resistant wheat,[7],2-4 fold
same,resistance of AHAS activity to inhibition,[8],Some resistance
"CC(C)C1(C)N=C(c2nc3ccccc3cc2C(=O)O)NC1=O (centres unmarked) [SCEPTER, 2-(4-isopropyl-4-methyl-5-oxo-2-imidazolin-2-yl)-3-quinolinecarboxylic acid]",seedling appearance versus controls,wheat seeds; seed soak 500 uM for 48 hours,slightly shorter than controls
same,seedling appearance versus controls,wheat seeds; seed soak 1-100 uM for 48 hours,indistinguishable from controls
same,prevention of escapes (false positives),"wheat seeds; seed soak maximum 1000 uM for 48 hours, Experiment 2",still not high enough to prevent “escapes”
same,resistance of AHAS activity to inhibition,[8],Some resistance
